Test results: ChEMBL document CHEMBL1201862, “PubChem BioAssay data set” (2004)
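Five concentrations, 48 hours, 96-well plates. GI50: concentration for 50% inhibition of growth.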 Active and inactive are the calls of the source. Cut-off read from the data, not from the text of the source: active = GI50 up to about 1.1 µM and inactive = higher.

How the values were obtained:
Assay in all cases: NCI anticancer screen, dose series, 48 h
RPMI-8226 = tested on: RPMI-8226
TK-10 = tested on: TK-10
NCI/ADR-RES = tested on: NCI/ADR-RES
HCT-15 = tested on: HCT-15
MDA-MB-231 = tested on: MDA-MB-231
SK-MEL-2 = tested on: SK-MEL-2
COLO 205 = tested on: COLO 205
PC-3 = tested on: PC-3
OVCAR-4 = tested on: OVCAR-4
SF-268 = tested on: SF-268
HCC 2998 = tested on: HCC 2998
HOP-62 = tested on: HOP-62
SK-MEL-5 = tested on: SK-MEL-5
MOLT-4 = tested on: MOLT-4
K562 = tested on: K562
T47D = tested on: T47D
OVCAR-5 = tested on: OVCAR-5
SW-620 = tested on: SW-620
BT-549 = tested on: BT-549
IGROV-1 = tested on: IGROV-1

Structure (SMILES)	GI50 (RPMI-8226)	GI50 (TK-10)	GI50 (NCI/ADR-RES)	GI50 (HCT-15) [µM]	GI50 (MDA-MB-231)	GI50 (SK-MEL-2)	GI50 (COLO 205)	GI50 (PC-3)	GI50 (OVCAR-4)	GI50 (SF-268)	GI50 (HCC 2998)	GI50 (HOP-62)	GI50 (SK-MEL-5)	GI50 (MOLT-4)	GI50 (K562)	GI50 (T47D)	GI50 (OVCAR-5)	GI50 (SW-620)	GI50 (BT-549)	GI50 (IGROV-1)
Cc1ccc(NC(=O)CSc2nc(O)nc3[nH]cnc23)cc1	50.5 µM (inactive)	> 100 µM (inactive)	80.2 µM (inactive)	> 100	> 100 µM (inactive)	> 100 µM (inactive)	> 100 µM (inactive)	97.5 µM (inactive)	> 100 µM (inactive)	48.5 µM (inactive)	> 100 µM (inactive)	48.5 µM (inactive)	86.9 µM (inactive)	58.7 µM (inactive)	> 100 µM (inactive)	> 100 µM (inactive)	49.7 µM (inactive)	66.2 µM (inactive)	54.5 µM (inactive)	> 100 µM (inactive)
CC(NNC(=O)c1cc[n+]([BH2-]C#N)cc1)c1cccc(C(F)(F)F)c1 (stereo not given)	65.2 µM (inactive)	> 100 µM (inactive)	> 100 µM (inactive)	68.5	> 100 µM (inactive)	> 100 µM (inactive)	> 100 µM (inactive)	44 µM (inactive)	> 100 µM (inactive)	> 100 µM (inactive)	> 100 µM (inactive)	> 100 µM (inactive)	72.1 µM (inactive)	46.7 µM (inactive)	47.8 µM (inactive)	40.2 µM (inactive)	> 100 µM (inactive)	> 100 µM (inactive)	> 100 µM (inactive)	> 100 µM (inactive)
CCC(C)NC(=S)N/N=C(\C)c1ccccn1 (stereo not given)	< 0.01 µM (active)	2.87 µM (inactive)	< 0.01 µM (active)	< 0.01	0.0543 µM (active)	1.27 µM (inactive)	< 0.01 µM (active)	< 0.01 µM (active)	1.31 µM (inactive)	0.351 µM (active)	0.447 µM (active)	0.0348 µM (active)	0.155 µM (active)	< 0.01 µM (active)	< 0.01 µM (active)	< 0.01 µM (active)	0.0991 µM (active)	< 0.0132 µM (active)	0.444 µM (active)	< 0.01 µM (active)
CCN(CC)CCNC(=O)c1ccc(C)c(OCc2ccccc2)c1[N+](=O)[O-]	25.8 µM (inactive)	61.2 µM (inactive)	33.4 µM (inactive)	21	35.6 µM (inactive)	21.2 µM (inactive)	16 µM (inactive)	45.3 µM (inactive)	56.8 µM (inactive)	63.2 µM (inactive)	28.8 µM (inactive)	28.6 µM (inactive)	16.3 µM (inactive)	28.7 µM (inactive)	19.2 µM (inactive)	20.7 µM (inactive)	35.9 µM (inactive)	18.3 µM (inactive)	> 35.8 µM (inactive)	62.8 µM (inactive)
CC(C)/C=N\N1C(N)=C(C#N)C(C#N)(C#N)C1C(C)C (stereo not given)	37.8 µM (inactive)	> 100 µM (inactive)	31.3 µM (inactive)	32.7	29.9 µM (inactive)	67.3 µM (inactive)	48.1 µM (inactive)	55.3 µM (inactive)	52.1 µM (inactive)	56.6 µM (inactive)	34.4 µM (inactive)	55.7 µM (inactive)	38.3 µM (inactive)	34.8 µM (inactive)	42.1 µM (inactive)	48.9 µM (inactive)	50.2 µM (inactive)	34.6 µM (inactive)	35.2 µM (inactive)	39.9 µM (inactive)
C=C1C(=O)OC2/C=C(/C)C(OC(C)=O)CC(O)/C(C)=C\C(OC(=O)/C(C)=C\C)C12 (stereo not given)	38.7 µM (inactive)	> 100 µM (inactive)	58.9 µM (inactive)	36.6	> 100 µM (inactive)	> 100 µM (inactive)	34.4 µM (inactive)	> 100 µM (inactive)	> 100 µM (inactive)	> 100 µM (inactive)	> 100 µM (inactive)	> 100 µM (inactive)	> 100 µM (inactive)	29.6 µM (inactive)	35.2 µM (inactive)	52.6 µM (inactive)	> 100 µM (inactive)	25.8 µM (inactive)	53.5 µM (inactive)	> 100 µM (inactive)
CN/N=C(\C)C(CN(C)C)C(c1ccccc1)c1c(O)c2ccccc2oc1=O (stereo not given)	42 µM (inactive)	> 100 µM (inactive)	> 100 µM (inactive)	> 100	> 100 µM (inactive)	> 100 µM (inactive)	40.4 µM (inactive)	> 100 µM (inactive)	99.1 µM (inactive)	> 100 µM (inactive)	> 100 µM (inactive)	> 100 µM (inactive)	> 100 µM (inactive)	75.5 µM (inactive)	> 100 µM (inactive)	18.7 µM (inactive)	> 100 µM (inactive)	> 100 µM (inactive)	24.3 µM (inactive)	> 100 µM (inactive)
COc1ccc(CCNC(=O)[C@H]2CCCC[C@@H]2CCO)cc1OC	> 100 µM (inactive)	> 100 µM (inactive)	> 100 µM (inactive)	> 100	> 100 µM (inactive)	> 100 µM (inactive)	> 100 µM (inactive)	> 100 µM (inactive)	> 100 µM (inactive)	> 100 µM (inactive)	> 100 µM (inactive)	> 100 µM (inactive)	> 100 µM (inactive)	> 100 µM (inactive)	> 100 µM (inactive)	> 100 µM (inactive)	> 100 µM (inactive)	> 100 µM (inactive)	> 100 µM (inactive)	> 100 µM (inactive)
COc1cc2c(/C=C3/C(=O)N(c4ccccc4)c4ccccc43)c(Cl)[nH]c2cc1C	1.34 µM (inactive)	3.19 µM (inactive)	2.11 µM (inactive)	2.83	3.21 µM (inactive)	2.72 µM (inactive)	1.9 µM (inactive)	2.94 µM (inactive)	2.59 µM (inactive)	3.47 µM (inactive)	2.37 µM (inactive)	3.07 µM (inactive)	2.32 µM (inactive)	2.56 µM (inactive)	2.84 µM (inactive)	2.07 µM (inactive)	3.45 µM (inactive)	2.84 µM (inactive)	2.48 µM (inactive)	2.7 µM (inactive)
O=C(/C=C/C(Cl)(Cl)Cl)Nc1ccc(Cl)cc1	2.09 µM (inactive)	2.35 µM (inactive)	2.45 µM (inactive)	3.56	2.49 µM (inactive)	8.59 µM (inactive)	2.19 µM (inactive)	12.5 µM (inactive)	1.82 µM (inactive)	3.23 µM (inactive)	6.44 µM (inactive)	4.94 µM (inactive)	11.1 µM (inactive)	1.64 µM (inactive)	1.62 µM (inactive)	2.15 µM (inactive)	13.5 µM (inactive)	3.38 µM (inactive)	17.2 µM (inactive)	0.452 µM (active)
